The values that follow come from US20210299079A1, “MONOMETHYL FUMARATE-CARRIER CONJUGATES AND METHODS OF THEIR USE” (Flagship Pioneering Innovations V, Inc., priority 2018, published 2021).

Where a name gives a salt, the structure may show the parent alone. Some results are limits rather than exact numbers.

The test system of one data set is naïve CD4+ T cells. The data set can be described thus: Human Regulatory T Cell Differentiation Assay. The class given is cell-based. The note with it: 6 days; for Cell viability % DMSO: viability dye; for activity at 3000 µM: IL-2, 3 mM; for activity at 100 µM: IL-2, 100 μM. As to the method:
Peripheral blood mononuclear cells (PBMCs) from whole blood donated by health volunteers were separated by Ficoll-Paque gradient centrifugation and naïve CD4^+ T cells were subsequently isolated using magnet beads (EasySep™ Human Naïve CD4^+ T Cell Isolation Kit, Cambridge, Mass.). For regulatory T cell (Treg) differentiation assay, naïve CD4^+ T cells were cultured (1-10×10^4 cells) in CTS OpTmizer medium for 6 days and stimulated with 5 ng/ml TGF-β, 100 U/ml IL-2, and ImmunoCult™ Human […] T Cell Activator; Stemcell #10990) with/without our Compounds. Cell viability was determined using a viability dye (eBioscience Fixable Viability Dye eFluor 780: ThermoFisher 65-0865-14) at 1:500 dilution. The cells were gated for Treg, defined as Live, CD11c^−, CD14^−, CD19^−, CD8^−, CD4^+, CD3^+, CD25^+, FOXP3^+. Percent (%) Tregs were calculated as percentage of CD4^+, CD25^+, FOXP3^+ cells over total CD4^+ T cells. Statistical analysis was performed with GraphPad Prism Software Using One-Way ANOVA.

Data set [1] in a line: Stability of conjugates in Simulated Gastric Fluid (SGF). The class given is in vitro ADME. The note with it: SGF pH 1.6 with pepsin, 37° C., 1 μM compound. On the procedure:
Assay 1. Stability of conjugates in Simulated Gastric Fluid (SGF). This assay was used to assess the stability of a conjugate in a stomach.
Medium was prepared by dissolving 2 g of sodium chloride in 0.6 L in ultrapure water (MilliQ®, Millipore Sigma, Darmstadt, Germany). The pH was adjusted to 1.6 with 1N hydrochloric acid, and the volume was then adjusted to 1 L with purified water.
60 mg FaSSIF powder (Biorelevant™, London, UK) were dissolved in 500 mL buffer (above). Pepsin was added (0.1 mg/mL) (Millipore Sigma, Darmstadt, Germany), and the solution was stirred. The resulting SGF media were used fresh for each experiment.
Test compounds were dissolved in DMSO stock to 1 mM. An aliquot of the DMSO stock solution was removed and diluted in the SGF Media in 15 mL falcon tubes to generate a total compound concentration of 1 μM. A 1 mL aliquot was immediately removed and diluted once with 1 volume of acetonitrile for TO timepoint. The mixture was sealed and mixed at 37° C. in an incubator. Aliquots (1 mL) were removed at regular intervals and immediately quenched by the addition of 1 volume of acetonitrile. The resulting samples were analyzed by LC/MS to determine degradation rates in SGF.

Data set [2] is described as follows: Stability of conjugates in Simulated Intestinal Fluid (SIF). It counts as in vitro ADME. To be noted: SIF pH 6.7 with pancreatin, 37° C., 1 μM compound. As to the method:
Assay 2. Stability of conjugates in Simulated Intestinal Fluid (SIF). This assay was used to assess the stability of a conjugate in a small intestine.
Phosphate buffer was prepared by dissolving 0.42 g of sodium hydroxide pellets and 3.95 g of monobasic sodium phosphate monohydrate and 6.19 g of sodium chloride in ultrapure water (MilliQ®, Millipore Sigma, Darmstadt, Germany). The pH was adjusted to 6.7 using aq. HCl and aq. NaOH, as necessary, and the solution was diluted with ultrapure water to produce 1 L of the pH 6.7 buffer.
112 mg FaSSIF powder (Biorelevant™, London, UK) was dissolved in 50 mL of the pH 6.7 buffer. 2 to 3 mL of the resulting solution were then added to 500 mg pancreatin (Millipore Sigma, Darmstadt, Germany). The resulting mixture was agitated by finger tapping the vessel containing the mixture until milky suspension formed. At this time, the remainder of the 50 mL FaSSiF/pH 6.7 buffer solution was added. The resulting suspension was flipped upside down 10 times to produce SIF, which was used fresh.
Test compounds were dissolved in DMSO stock to 1 mM. An aliquot of the DMSO stock solution was removed and diluted in the SIF media in 15 mL falcon tubes to produce a mixture with a tested compound concentration of 1 μM. A 1 mL aliquot was immediately removed and diluted once with 1 volume of acetonitrile for TO timepoint. The mixture was sealed and agitated at 37° C. in an incubator. Aliquots (1 mL) were removed at regular intervals and immediately quenched by the addition of 1 volume of acetonitrile. The resulting samples were analyzed by LC/MS to determine degradation rates

The mark [3] stands for this setting: Homo sapiens, 144 h, TGF-β, read-out: Treg induction % DMSO.

`CCCC(=O)O` [butyric Acid]: the “Cell viability % DMSO” value in the data set on naïve CD4+ T cells (3 mM) is reported as “− (<90%: −)”. In addition, in the data set on naïve CD4+ T cells (setting [3]), the activity at 3000 µM was less than 90%.
`COC(=O)/C=C/C(=O)Oc1ccc(-c2oc3cc(OC(=O)/C=C/C(=O)OC)cc(OC(=O)/C=C/C(=O)OC)c3c(=O)c2O)cc1` [Compound 56, O4-[4-[3-hydroxy-5,7-bis[[(E)-4-methoxy-4-oxo-but-2-enoyl]oxy]-4-oxo-chromen-2-yl]phenyl] O1-methyl (E)-but-2-enedioate]: the “Assay 1 (SGF) (% Remaining @ 1 hour)” value in data set [1] is “C (C: >75% of the tested compound remaining)”. Further, the “Assay 2 (SIF) (% @ Remaining 4 hours)” value in data set [2] is given as “A (A: <25% of the tested compound remaining)”.
On to `COC(=O)/C=C/C(=O)Oc1ccc(-c2oc3cc(OC(=O)/C=C/C(=O)OC)cc(OC(=O)/C=C/C(=O)OC)c3c(=O)c2OC(=O)/C=C/C(=O)OC)cc1` [Compound 54, 01-methyl O4-[4-[3,5,7-tris[[(E)-4-methoxy-4-oxo-but-2-enoyl]oxy]-4-oxo-chromen-2-yl]phenyl] (E)-but-2-enedioate], for which the “Assay 1 (SGF) (% Remaining @ 1 hour)” value in data set [1] is “C (C: >75% of the tested compound remaining)”. Besides, in data set [2], the “Assay 2 (SIF) (% @ Remaining 4 hours)” value is reported as “A (A: <25% of the tested compound remaining)”.
In the case of `CCC(=O)O` [propionic acid], in the data set with naïve CD4+ T cells (3 mM), the “Cell viability % DMSO” value was “= (90% > <110%: =)”. Besides, in the data set on naïve CD4+ T cells (setting [3]), the activity at 3000 µM was more than 130%.
Regarding `CCC(=O)O[C@H]1[C@@H](OC(=O)CC)[C@@H](CO)O[C@H](OC(=O)/C=C/C(=O)OC)[C@@H]1OC(=O)CC` [Compound 48, (2R,3R,4S,5S,6R)-6-(hydroxymethyl)-3,4,5-tris(propanoyloxy)oxan-2-yl 1-methyl (2E)-but-2-enedioate], the “Assay 1 (SGF) (% Remaining @ 1 hour)” value in data set [1] was “C (C: >75% of the tested compound remaining)”. Moreover, the “Assay 2 (SIF) (% @ Remaining 4 hours)” value in data set [2] is “A (A: <25% of the tested compound remaining)”.
The corresponding values for `CCC(=O)OC[C@H]1O[C@@H](OC(=O)/C=C/C(=O)OC)[C@H](OC(=O)CC)[C@@H](OC(=O)CC)[C@H]1O` [Compound 47, (2S,3R,4S,5S,6R)-5-hydroxy-3,4-bis(propanoyloxy)-6-[(propanoyloxy)methyl]oxan-2-yl 1-methyl (2E)-but-2-enedioate] are “C (C: >75% of the tested compound remaining)” and “A (A: <25% of the tested compound remaining)”.
For `COC(=O)/C=C/C(=O)Oc1cc(OC(=O)/C=C/C(=O)OC)c2c(=O)c(OC(=O)/C=C/C(=O)OC)c(-c3ccc(OC(=O)/C=C/C(=O)OC)c(OC(=O)/C=C/C(=O)OC)c3)oc2c1` [Compound 55, O4-[2-[(E)-4-methoxy-4-oxo-but-2-enoyl]oxy-4-[3,5,7-tris[[(E)-4-methoxy-4-oxo-but-2-enoyl]oxy]-4-oxo-chromen-2-yl]phenyl] O1-methyl (E)-but-2-enedioate], in that order: “C (C: >75% of the tested compound remaining)” and “A (A: <25% of the tested compound remaining)”.
The corresponding values for `CCC(=O)O[C@H]1O[C@H](COC(=O)/C=C/C(=O)OC)[C@@H](OC(=O)CC)[C@H](OC(=O)CC)[C@H]1OC(=O)CC` [Compound 50, 1-methyl 4-[(2R,3R,4S,5R,6R)-3,4,5,6-tetrakis(propanoyloxy)oxan-2-yl]methyl (2E)-but-2-enedioate] are “C (C: >75% of the tested compound remaining)” and “A (A: <25% of the tested compound remaining)”.
Regarding `CCC(=O)O[C@H]1[C@H](OC(=O)/C=C/C(=O)OC)OC[C@@H](OC(=O)CC)[C@H]1OC(=O)CC` [Compound 6, Methyl ((2S,3R,4R,5R)-3,4,5-tris(propionyloxy)tetrahydro-2H-pyran-2-yl) fumarate], the “Assay 1 (SGF) (% Remaining @ 1 hour)” value in data set [1] is “C (C: >75% of the tested compound remaining)”. For the same compound, in data set [2], the “Assay 2 (SIF) (% @ Remaining 4 hours)” value is given as “A (A: <25% of the tested compound remaining)”.
As for `CC(=O)O` [acetic acid], the “Cell viability % DMSO” value in the data set on naïve CD4+ T cells (1 mM) and in the data set with naïve CD4+ T cells (3 mM) was “= (90% > <110%: =)” in each case. Besides, the activity at 1000 µM with naïve CD4+ T cells (Homo sapiens, 144 h, TGF-β, IL-2, 1 mM, read-out: Treg induction % DMSO) is 110 to 130%. Further, the activity at 3000 µM in the data set with naïve CD4+ T cells (setting [3]) was more than 130%.
In the case of `CCC(=O)O[C@H]1[C@H](OC(=O)CC)[C@@H](OC(=O)/C=C/C(=O)OC)O[C@@H](C)[C@H]1OC(=O)CC` [Compound 21, Methyl ((2R,3S,4R,5R,6S)-6-methyl-3,4,5-tris(propionyloxy)tetrahydro-2H-pyran-2-yl) fumarate], the “Assay 1 (SGF) (% Remaining @ 1 hour)” value in data set [1] was “C (C: >75% of the tested compound remaining)”. The “Assay 2 (SIF) (% @ Remaining 4 hours)” value in data set [2] is given as “B (B: 25-75% of the tested compound remaining)”.
`CCCC(=O)O[C@H]1[C@@H](OC(=O)CCC)[C@@H](CO)O[C@@H](OC(=O)/C=C/C(=O)OC)[C@@H]1OC(=O)CCC` [Compound 44, 1-methyl (2S,3R,4S,5S,6R)-3,4,5-tris(butanoyloxy)-6-(hydroxymethyl)oxan-2-yl (2E)-but-2-enedioate]: in data set [1], the “Assay 1 (SGF) (% Remaining @ 1 hour)” value is listed as “C (C: >75% of the tested compound remaining)”. The “Assay 2 (SIF) (% @ Remaining 4 hours)” value in data set [2] was “A (A: <25% of the tested compound remaining)”.
For `CCC(=O)OC[C@H]1O[C@H](OC(=O)CC)[C@H](OC(=O)CC)[C@@H](OC(=O)CC)[C@H]1OC(=O)/C=C/C(=O)OC` [Compound 52, 1-methyl (2R,3S,4S,5R,6R)-4,5,6-tris(propanoyloxy)-2-[(propanoyloxy)methyl]oxan-3-yl (2E)-but-2-enedioate], in that order: “C (C: >75% of the tested compound remaining)” and “A (A: <25% of the tested compound remaining)”.
As for `CCC(=O)O[C@@H]1O[C@H](COC(=O)/C=C/C(=O)OC)[C@@H](OC(=O)CC)[C@H](OC(=O)CC)[C@H]1OC(=O)CC` [Compound 22, Methyl (((2R,3R,4S,5R,6S)-3,4,5,6-tetrakis(propionyloxy)tetrahydro-2H-pyran-2-yl)methyl) fumarate], the “Assay 1 (SGF) (% Remaining @ 1 hour)” value in data set [1] is “C (C: >75% of the tested compound remaining)”. Besides, the “Assay 2 (SIF) (% @ Remaining 4 hours)” value in data set [2] is “A (A: <25% of the tested compound remaining)”.
`CC[C@H]1[C@@H](O)[C@@H]2[C@H](CC[C@]3(C)[C@@H]([C@H](C)CCC(=O)O)CC[C@@H]23)[C@@]2(C)CC[C@@H](O)C[C@@H]12` [obeticholic acid, reference compound]: in the data set with naïve CD4+ T cells (100 μM), the “Cell viability % DMSO” value was “= (90% > <110%: =)”. Besides, the activity at 100 µM with naïve CD4+ T cells (setting [3]) is 110 to 130%.
On to `CC(O)CC(=O)[O-].[Na+]` (stereo not drawn) [sodium β-hydroxybutyrate], for which the “Cell viability % DMSO” value in the data set with naïve CD4+ T cells (2 mM) is on record as “= (90% > <110%: =)”; in the data set on naïve CD4+ T cells (20 mM), “− (<90%: −)”. The activity at 2000 µM in the data set with naïve CD4+ T cells (Homo sapiens, 144 h, TGF-β, IL-2, 2 mM, read-out: Treg induction % DMSO) is 110 to 130%. Moreover, in the data set with naïve CD4+ T cells (Homo sapiens, 144 h, TGF-β, IL-2, 20 mM, read-out: Treg induction % DMSO), the activity at 20000 µM was in the range of 90 to 110%.
For `CN(CCOc1ccc(CC2SC(=O)NC2=O)cc1)c1ccccn1` (stereo not shown) [rosiglitazone, reference compound], the “Cell viability % DMSO” value in the data set with naïve CD4+ T cells (10 μM) was “= (90% > <110%: =)”; in the data set with naïve CD4+ T cells (100 μM) it was “− (<90%: −)”. Moreover, the activity at 10 µM in the data set on naïve CD4+ T cells (Homo sapiens, 144 h, TGF-β, IL-2, 10 μM, read-out: Treg induction % DMSO) is 90 to 110%. For the same compound, in the data set on naïve CD4+ T cells (setting [3]), the activity at 100 µM was 90 to 110%.
